Assay: solvent given as SMILES

ClC(Cl)(Cl)Cl
Details | solvation free energy, 298 K [kcal/mol]
in Brc1cccc2ccccc12 | -3.92
in C1CCCC1 | -4.4
in C1CCOC1 | -4.65
in C1COCCO1 | -4.32
in C=CCCCCCCCCCCCCCC | -3.81
in CC#N | -3.66
in CC(=O)CC(C)C | -4.22
in CC(=O)N(C)C | -4.52
in CC(=O)OCc1ccccc1 | -3.97
in CC(C)(C)O | -3.74
in CC(C)=O | -4.15
in CC(C)CCCC(C)CCCC(C)CCCCC(C)CCCC(C)CCCC(C)C | -3.74
in CCC(C)=O | -4.15
in CCCCCC | -4.14
in CCCCCCC | -4.09
in CCCCCCCC | -3.98
in CCCCCCCCC=CCCCCCCCC(=O)OCC(COC(=O)CCCCCCCC=CCCCCCCCC)OC(=O)CCCCCCCC=CCCCCCCCC | -4
in CCCCCCCCCCCCCC | -3.8
in CCCCCCCCCCCCCCCC | -3.85
in CCCCCCCCCOC(=O)c1ccccc1C(=O)OCCCCCCCCC | -3.85
in CCCCCCCCN(CCCCCCCC)CCCCCCCC | -3.79
in CCCCCCCCO | -3.79
in CCCCCCO | -3.84
in CCCCCN(CCCCC)CCCCC | -3.96
in CCCCCl | -4.28
in CCCCN(C=O)CCCC | -4.11
in CCCCN(CCCC)CCCC | -3.84
in CCCCO | -3.87
in CCCCOC | -4.39
in CCCCOC(C)=O | -4.26
in CCCCOCC | -4.29
in CCCCOCCCC | -4.16
in CCCO | -3.75
in CCCOCCC | -4.25
in CCO | -3.74
in CCOC(=O)c1ccccc1C(=O)OCC | -3.77
in CCOC(C)=O | -4.23
in CCOCC | -4.41
in CI | -4.51
in CN1CCCC1=O | -4.16
in CNC(C)=O | -3.9
in CO | -3.66
in CS(C)=O | -3.66
in CSC | -4.63
in Cc1ccc(C)cc1 | -4.35
in Cc1cccc(C)c1 | -4.29
in Cc1ccccc1C | -4.34
in ClC(Cl)Cl | -4.43
in ClCCCl | -4.15
in NC=O | -2.16
in O | 0.07
in O=C1CCCCC1 | -4.32
in S=C=S | -4.52
in [2H]O[2H] | -0.62
in c1ccc2ncccc2c1 | -4.07

COC(=O)CCl
Details | solvation free energy, 298 K [kcal/mol]
in O | -4

CNCCc1ccc(OC)cc1
Details | solvation free energy, 298 K [kcal/mol]
in C=CCCCCCCC=C | -9.47
in O | -7.94

CC1=CCC23CC1C(C)(C)C2CCC3C (configuration not stated)
Details | solvation free energy, 298 K [kcal/mol]
in O | 0.78

BrCCBr
Details | solvation free energy, 298 K [kcal/mol]
in C1COCCO1 | -5.84
in ClC(Cl)(Cl)Cl | -5.33
in O | -2.2

CCCCCCC(C)O (configuration not stated)
Details | solvation free energy, 298 K [kcal/mol]
in CCCCCCC | -5.86
in O | -3.77

CCCC#N
Details | solvation free energy, 298 K [kcal/mol]
in C=CCCCCCCCCCCCCCC | -3.53
in CC(C)(C)O | -4.67
in CC(C)CO | -4.56
in CC(C)O | -4.6
in CCC(C)O | -4.57
in CCCCCC | -3.75
in CCCCCCC | -3.68
in CCCCCCCCCCCCCCCC | -3.32
in CCCCCCCCCCO | -3.92
in CCCCCCCCCO | -4.07
in CCCCCCCCO | -4.24
in CCCCCCCO | -4.32
in CCCCCCO | -4.32
in CCCCCO | -4.47
in CCCCO | -4.62
in CO | -5.21
in O | -3.63
in [2H]O[2H] | -3.58

O=NN1CCOCC1
Details | solvation free energy, 298 K [kcal/mol]
in O | -7.78

CCNc1nc(NC(C)C(C)C)nc(SC)n1 (configuration not stated)
Details | solvation free energy, 298 K [kcal/mol]
in O | -8.73

CC(C)Nc1nc(Cl)nc(NC(C)C)n1
Details | solvation free energy, 298 K [kcal/mol]
in O | -9.55

S
Details | solvation free energy, 298 K [kcal/mol]
in Brc1ccccc1 | -1.3
in C1CCC2CCCCC2C1 | -0.99
in CC1COC(=O)O1 | -1.49
in CC(=O)N(C)C | -2.25
in CC(C)=O | -1.9
in CCCCCCCCCCCCCCCC | -0.88
in CN1CCCC1=O | -2.2
in CN(C)C=O | -2.2
in CN(C)P(=O)(N(C)C)N(C)C | -2.64
in CO | -1.72
in COC(=O)CC#N | -1.35
in COCCOCCO | -1.91
in COCCOCCOC | -1.96
in COCCOCCOCCOC | -1.84
in COCCOCCOCCOCCOC | -1.97
in CS(C)=O | -2.04
in Clc1ccccc1 | -1.5
in Nc1ccccc1 | -1.7
in O | -0.65
in O=CN1CCOCC1 | -1.81
in OCCCOCCCO | -1.24
in OCCO | -1.17
in OCCOCCO | -1.34
in OCCOCCOCCO | -1.32
in OCc1ccccc1 | -1.35

CCCCCCc1cccc2ccccc12
Details | solvation free energy, 298 K [kcal/mol]
in OCCOCCO | -8.95

NCCc1ccccc1
Details | solvation free energy, 298 K [kcal/mol]
in C=CCCCCCCC=C | -7.41
in O | -6.56

CCCCC(C)CCC (configuration not stated)
Details | solvation free energy, 298 K [kcal/mol]
in O | 3.57

CCNc1nc(NC(C)CC)nc(OC)n1 (configuration not stated)
Details | solvation free energy, 298 K [kcal/mol]
in O | -9.89

CCCCN(CC)c1c([N+](=O)[O-])cc(C(F)(F)F)cc1[N+](=O)[O-]
Details | solvation free energy, 298 K [kcal/mol]
in O | -3.51

CCC(CC)(CC)CC
Details | solvation free energy, 298 K [kcal/mol]
in CCCCCC | -5.88
in CO | -4.3

O=C(O)c1cc([N+](=O)[O-])cc([N+](=O)[O-])c1
Details | solvation free energy, 298 K [kcal/mol]
in C1CCOC1 | -14.9
in C1COCCO1 | -14.6
in CC(C)CCO | -13.8
in CC(C)CO | -13.7
in CC(C)O | -14.1
in CC(C)OC(C)C | -13
in CCC(C)O | -13.9
in CCCC(C)O | -13.9
in CCCCCCCCCCO | -13.6
in CCCCCCCCO | -13.7
in CCCCCCCO | -13.7
in CCCCCCO | -13.8
in CCCCCO | -13.9
in CCCCCOC(C)=O | -13.7
in CCCCO | -14
in CCCCOC(C)=O | -13.9
in CCCO | -14.2
in CCO | -14.4
in CCOC(C)=O | -14.2
in CCOCC | -13.9
in CN(C)C=O | -14.8
in O | -11.3

O=Nc1c(O)ccc2ccccc12
Details | solvation free energy, 298 K [kcal/mol]
in O | -7.31

COCC(OC)(OC)OC
Details | solvation free energy, 298 K [kcal/mol]
in O | -5.73

Cc1cccc(C)n1
Details | solvation free energy, 298 K [kcal/mol]
in CC(C)CC(C)(C)C | -5.29
in O | -4.59

CC(C)CCOC=O
Details | solvation free energy, 298 K [kcal/mol]
in O | -2.13

FC(F)(F)C(F)(F)C(F)(F)C(F)(F)C(F)(F)C(F)(F)C(F)(F)F
Details | solvation free energy, 298 K [kcal/mol]
in CCCCCCC | -2.35
in CCCCO | -1.29
in CCCO | -1.24
in S=C=S | -0.45

CCC(=O)CC
Details | solvation free energy, 298 K [kcal/mol]
in CC(C)CCCC(C)CCCC(C)CCCCC(C)CCCC(C)CCCC(C)C | -3.73
in CCCCCCC | -4.04
in CCCCCCCCC=CCCCCCCCC(=O)OCC(COC(=O)CCCCCCCC=CCCCCCCCC)OC(=O)CCCCCCCC=CCCCCCCCC | -4.31
in CCCCCCCCCCCCCCCC | -3.73
in CCCCCCCCO | -4.34
in CN1CCCC1=O | -4.76
in CO | -4.96
in O | -3.33
in O=CN1CCOCC1 | -4.45
in [2H]O[2H] | -3.27

CCCCN(CCCC)N=O
Details | solvation free energy, 298 K [kcal/mol]
in CC(C)CC(C)(C)C | -7.84
in O | -4.91

C=C
Details | solvation free energy, 298 K [kcal/mol]
in Brc1ccccc1 | -0.52
in C1CCC2CCCCC2C1 | -0.46
in C1CCOC1 | -0.82
in C1COCCO1 | -0.58
in CC1CO1 | -0.89
in CC1COC(=O)O1 | -0.17
in CC#N | -0.62
in CC(=O)N(C)C | -0.45
in CC(C)(C)O | -0.49
in CC(C)=O | -0.76
in CC(C)CO | -0.46
in CC(C)O | -0.45
in CCC(C)O | -0.44
in CCCCC | -0.69
in CCCCCC | -0.64
in CCCCCCC | -0.62
in CCCCCCCC | -0.6
in CCCCCCCCC | -0.6
in CCCCCCCCCC | -0.57
in CCCCCCCCCCCCCCCC | -0.39
in CCCCCCCCO | -0.37
in CCCCCCCO | -0.43
in CCCCCCO | -0.43
in CCCCCO | -0.48
in CCCCO | -0.46
in CCCO | -0.52
in CCO | -0.56
in CCOCC | -0.97
in CN1CCCC1 | -0.32
in CN1CCCC1=O | -0.4
in CN(C)C=O | -0.45
in CN(C)P(=O)(N(C)C)N(C)C | -0.52
in CNC=O | -0.2
in CO | -0.51
in COC(C)=O | -0.75
in COCCOCCOCCOC | -0.25
in CS(C)=O | -0.05
in Cc1cccc(C)c1 | -0.61
in ClC(Cl)(Cl)Cl | -0.78
in ClCCCl | -0.49
in Clc1ccccc1 | -0.61
in N#Cc1ccccc1 | -0.45
in Nc1ccccc1 | -0.15
in O | 1.28
in O=C1CCCC1 | -0.6
in O=C1CCCCC1 | -0.55
in OCCCOCCCO | 0.06
in OCCO | 0.5
in OCc1ccccc1 | -0.23
in c1ccccc1 | -0.66

ClCBr
Details | solvation free energy, 298 K [kcal/mol]
in C1CCCCC1 | -3.69
in ClC(Cl)(Cl)Cl | -3.93
in c1ccccc1 | -4.32

CN1CCNCC1
Details | solvation free energy, 298 K [kcal/mol]
in O | -7.77

CCNc1ccccc1
Details | solvation free energy, 298 K [kcal/mol]
in O | -4.76

CC(=O)N1CCCC1
Details | solvation free energy, 298 K [kcal/mol]
in O | -9.8

Fc1c(F)c(F)c(F)c(F)c1F
Details | solvation free energy, 298 K [kcal/mol]
in C1CCOC1 | -4.5
in C1COCCO1 | -4.23
in CC(C)CC(C)(C)C | -3.53
in CC(C)OC(C)C | -4.13
in CCCCO | -3.46
in CCOCC | -4.35
in O | 0.1

CC(C)C#N
Details | solvation free energy, 298 K [kcal/mol]
in CCCCCCCCCCCCCCCC | -3.08
in CCCCCCCCO | -3.92
in O | -3.31
in [2H]O[2H] | -3.29

CC(C)OC(C)(C)C
Details | solvation free energy, 298 K [kcal/mol]
in CC(=O)N(C)C | -3.75
in CCCCN(C=O)CCCC | -3.87
in CN1CCCCC1=O | -3.66
in CNC(C)=O | -3.62
in O | -1.01

CC1=CC2C(=C(C)CCC2C(C)C)CC1 (configuration not stated)
Details | solvation free energy, 298 K [kcal/mol]
in O | -0.4

CC12CCC(=O)C=C1CCC1C2C(O)CC2(C)C1CCC2(O)C(=O)CO (configuration not stated)
Details | solvation free energy, 298 K [kcal/mol]
in C=CCCCCCCC=C | -21.7
in C=CCCCCCCCCCCCCCC | -20.9
in O | -25.4

Source: the CombiSolv-Exp solvation set (Vermeire and Green 2021)
